{"source": "paper PMC4788259", "about": "(PLoS Neglected Tropical Diseases, 2016)", "key": {"[1]": {"tested_on": "E. multilocularis metacestodes", "assay": "Peroral treatment of secondary infected mice", "type": "in vivo, BALB/c mice", "conditions": "p.o. gavage 5 days per week, 4 weeks, MMV665807 100 mg/kg, ABZ 200 mg/kg", "procedure": "Animals were kept at a temperature-controlled 12/12 hours light cycle with food and water ad libitum and according to the Swiss Animal protection law. For the in vivo treatment of MMV665807, BALB/c mice (from Charles River, Sulzfeld, Germany), at the age of 8 weeks with an average body weight of 20 g, were i.p. infected with 200 μL metacestodes vesicle suspension. This material was prepared from in vitro-cultured metacestodes (strain H95), which were disintegrated by pressing the parasites through a 1 mL pipette tip. Parasite tissue was centrifuged at 500 x g for 5 min at room temperature before being mixed 1:1 in PBS.\nPeroral (p.o.) drug treatments by gavage were initiated 6 weeks post-infection and performed as follows: group 1 received no treatment at all; group 2 received 100 μL corn oil containing 7.8 μL DMSO; group 3 mice were treated with 100 μL corn oil containing albendazole (ABZ) in 7.8 μL DMSO, in order to obtain a dosage of 200 mg/kg body weight (positive control); group 4 was treated with 100 μL corn oil containing MMV665807 in 7.8 μL DMSO, resulting in 100 mg/kg body weight. All mice were treated for a total time period of 4 weeks, with consecutive treatment during 5 days per week, and interruption of treatment for 2 days each week. At the end of the treatment, all mice were sedated by isoflurane and subsequently euthanized by CO2. All parasite tissue was resected, placed into a petri dish, and the parasite mass was weighed. Statistical analysis of the in vivo experiments was performed in R version 3.0.1. The data distribution was checked by Shapiro-Wilk test and eventual differences between treatment groups identified by the non-parametric Kruskal-Wallis test. P values were calculated by the non-parametric Wilcoxon […] test with Bonferroni-adjustment. Boxplot visualizations of the data were prepared in Microsoft Excel 2010."}, "[2]": {"set-up": "method as in earlier work", "conditions": "MMS, Human; ref MMV; cited from earlier work"}, "T. gondii": {"tested_on": "T. gondii", "set-up": "method as in PMID 22970937", "conditions": "cited from earlier work"}, "[3]": {"set-up": "method as in earlier work", "conditions": "MMS, Mouse; ref MMV; cited from earlier work"}, "[4]": {"set-up": "method as in earlier work", "conditions": "PLS, ref MMV; cited from earlier work"}, "M. tuberculosis": {"tested_on": "M. tuberculosis", "set-up": "method as in PMID 23211970", "conditions": "cited from earlier work"}, "[5]": {"tested_on": "human foreskin fibroblasts (HFF)", "assay": "alamarBlue viability assay on HFF", "type": "cell-based", "conditions": "Fibroblast, 120 h, 5 days", "procedure": "For testing growth inhibitory effects on confluent host cells, cells were seeded in 96-well plates (10,000 cells per well for HFF and 50,000 cells per well for RH cells), in DMEM containing FBS (10%) and antibiotics (100 U penicillin, 100 μg streptomycin and 0.25 μg amphotericin B per mL medium) and were cultured overnight at 37°C, 5% CO2. Thereafter the drugs (10 μM) were added and diluted in a serial 1:2 dilutions down to 20 nM. The concentration range was further adjusted in subsequent setups. For testing growth inhibitory effects on proliferating cells, cells were seeded at 1,000 (HFF) and 5,000 (RH) cells per well, and were allowed to attach for 5 hours at 37°C before addition of the drugs. After 5 days of culture, cell viability was assessed by alamarBlue assay."}, "[6]": {"set-up": "method as in earlier work", "conditions": "HMS, Human; ref MMV; cited from earlier work"}, "[7]": {"tested_on": "newly transformed schistosomula", "set-up": "method as in PMID 24416463", "conditions": "in vitro; read-out: IC50 against newly transformed schistosomula; cited from earlier work"}, "murine macrophages": {"tested_on": "murine macrophages", "set-up": "method as in PMID 23211970", "conditions": "cited from earlier work"}, "[8]": {"set-up": "method as in earlier work", "conditions": "PLS, ref MMV; cited from earlier work", "remark": "listed apart in the source"}, "[9]": {"conditions": "cited from earlier work"}, "[10]": {"conditions": "PO, administered dose 119 μmol/kg, ref MMV"}}, "note": "Where two headings read alike, the source gives them in different places."}
{"molecule": "O=C(Nc1cccc(C(F)(F)F)c1)c1cc(Cl)ccc1O", "note": "[MMV665807]", "values": [{"measurement": "parasite weight compared to control", "setting": "[1]; start 6 weeks post-infection", "value": "no effect"}, {"measurement": "adverse effects during treatment", "setting": "[1]", "value": "No adverse effects"}, {"measurement": "CL", "setting": "[2]", "value": 66.8, "unit": "µL/min/mg"}, {"measurement": "CLh", "setting": "[2]", "value": 15.9, "unit": "mL/min/kg"}, {"measurement": "CLint", "setting": "[2]", "value": 66.1, "unit": "mL/min/kg"}, {"measurement": "T1/2", "setting": "[2]", "value": 41.5, "unit": "min"}, {"measurement": "in vitro activity against T. gondii", "setting": "T. gondii", "value": "moderate in vitro activity"}, {"measurement": "CL", "setting": "[3]", "value": 190.4, "unit": "µL/min/mg"}, {"measurement": "CLh", "setting": "[3]", "value": 80.4, "unit": "mL/min/kg"}, {"measurement": "CLint", "setting": "[3]", "value": 754.0, "unit": "mL/min/kg"}, {"measurement": "T1/2", "setting": "[3]", "value": 14.6, "unit": "min"}, {"measurement": "% Remaining after Incubation (60 min) Human Plasma", "setting": "[4]", "value": 83.2, "unit": "%"}, {"measurement": "MIC", "setting": "M. tuberculosis", "value": "3.1 to 6.3", "unit": "µM"}, {"measurement": "IC50", "setting": "[5]; confluent cells, read-out: Confluent HFF (IC50)", "value": "29.2 ± 0.06", "unit": "µM"}, {"measurement": "IC50", "setting": "[5]; proliferating cells, read-out: Preconfluent HFF (IC50)", "value": "4.8 ± 0.59", "unit": "µM"}, {"measurement": "CLint", "setting": "[6]", "value": 107.6, "unit": "mL/min/kg"}, {"measurement": "t½", "setting": "[6]", "value": 23.3, "unit": "min"}, {"measurement": "IC50", "setting": "[7]", "value": 1.8, "unit": "µM"}, {"measurement": "IC50", "setting": "murine macrophages", "value": 5.9, "unit": "µM"}, {"measurement": "% Remaining after Incubation (60 min) CD-1 Mouse Plasma", "setting": "[8]", "value": 102.5, "unit": "%"}, {"measurement": "AUC0-last", "setting": "[9]; [10]", "value": 0.264, "unit": "µM·h"}, {"measurement": "Cmax", "setting": "[9]; [10]", "value": 62.3, "unit": "nM"}, {"measurement": "MRT0-last", "setting": "[9]; [10]", "value": 314, "unit": "min"}, {"measurement": "Tlast", "setting": "[9]; [10]", "value": 9.00, "unit": "h"}, {"measurement": "Tmax", "setting": "[9]; [10]", "value": 380, "unit": "min"}, {"measurement": "plasma level", "setting": "[9]; single dose p.o. application of 50 mg/kg, ref MMV (S3 Table)", "value": 60, "unit": "nM"}]}
